Data: patent publication US8450298B2, “Aminoalcohol lipidoids and uses thereof” (Massachusetts Institute of Technology, priority 2008, dated 2013)

Tested on: Factor VII
Assay: In vivo Factor VII knockdown with anti-Factor VII siRNA in lipidoid formulations
Conditions: mice, 0.01 mg/kg siRNA dosing
Protocol: C57BL/6 mice (Charles River Labs) received either saline or siRNA in lipidoid formulations via tail vein injection at a volume of 0.01 ml/g. […] At 48 hours after administration, animals were anesthetized by isofluorane inhalation and blood was collected into serum separator tubes by retroorbital bleed. Serum levels of Factor VII protein were determined in samples using a chromogenic assay (Biophen FVII, Aniara Corporation) according to the manufacturer's protocols. A standard curve was generated using serum collected from saline-treated animals. Exemplary results are depicted in FIG. 7.
To test siRNA delivery efficacy in vivo, a mouse model for liver delivery was used. […] Once produced by hepatocytes, Factor VII is released into the bloodstream, and a baseline level of expression can be determined by simple blood draw and quantification of protein levels by colorimetric assay. By delivering anti-Factor VII siRNA to hepatocytes, knockdown of this model protein can be achieved and a percentage of silencing can be determined by comparison to an untreated control. […]
Following the initial in vivo screening experiments, two compounds were used to conduct a dose response. […] In addition to Factor VII measurement, the change in mouse body weight is recorded and a loss in weight is generally considered formulation induced toxicity (See FIG. 13b and FIG. 14b). […]

| SMILES | reduction of systemic Factor VII (preliminary) | difference between Factor VII results of racemic C12-200 and those of the R or S forms |
| --- | --- | --- |
| CCCCCCCCCC[C@@H](O)CN(CCN1CCN(CCN(C[C@H](O)CCCCCCCCCC)C[C@H](O)CCCCCCCCCC)CC1)CCN(C[C@H](O)CCCCCCCCCC)C[C@H](O)CCCCCCCCCC [(R)-C12-200] | approximately 50% |  |
| CCCCCCCCCCC(O)CN(CCN1CCN(CCN(CC(O)CCCCCCCCCC)CC(O)CCCCCCCCCC)CC1)CCN(CC(O)CCCCCCCCCC)CC(O)CCCCCCCCCC (centres unmarked) [C12-200] |  | insignificant |
